Laboratory results reported in patent publication US8002740B2, “Devices for maintaining patency of surgically created channels in tissue” (Broncus Technologies, Inc., priority 2003, dated 2011).

Settings: polymer system of polydimethylsiloxane vinyl terminated at various viscosity and a range of platinum-mono, di, tri and/or tetramethyldisiloxane complex
Description: The composition for the example may be as follow: polymer part: polydimethylsiloxane, vinyldimethyl terminated, any viscosity; and/or polydimethylsiloxane, vinylmonomethyl terminated, any viscosity. The cross-linker part: polydimethylsiloxane, any viscosity; and or polymonomethylsiloxane, any viscosity. Platinum catalyst part and/or cross-linker part: platinum; and/or platinum-divinyltetramethyldisiloxane complex in xylene, 2-3% Pt; and/or platinum-divinyltetramethyldisiloxane complex in vinyl terminated polydimethylsiloxane, 2-3% Pt; and/or platinum-divinyltetramethyldisiloxane complex in vinyl terminated polydimethylsiloxane, ˜1% Pt; platinum-Cyclovinylmethylsiloxane complex, 2-3% Pt in cyclic vinyl methyl siloxane.
These components may be combined in different ratios to make the polymer. […] The amount of vinyl siloxane cross-linker may determine the rate of the drug release and diffusivity of the polymer to the drug.

- release profile: acceptable
SMILES: CC(=O)O[C@H]1C(=O)[C@@]2(C)[C@H]([C@H](OC(=O)c3ccccc3)[C@]3(O)C[C@H](OC(=O)[C@H](O)[C@@H](NC(=O)c4ccccc4)c4ccccc4)C(C)=C1C3(C)C)[C@]1(OC(C)=O)CO[C@@H]1C[C@@H]2O [paclitaxel]
